Values belong to the molecule of their own block, whether it stands above or below them.
Legend:
[1] = molecular target: T1, Mitogen-activated protein kinase kinase kinase kinase 3 (Homo sapiens) (UniProt Q8IVH8); assay: Selectivity interaction (Ambit KINOMEscan and KiNATiv profiling in Jurkat cells) EUB0000090b MAP4K3; format: cell-based; conditions: at 1 µM
T1 sequence (whole entry): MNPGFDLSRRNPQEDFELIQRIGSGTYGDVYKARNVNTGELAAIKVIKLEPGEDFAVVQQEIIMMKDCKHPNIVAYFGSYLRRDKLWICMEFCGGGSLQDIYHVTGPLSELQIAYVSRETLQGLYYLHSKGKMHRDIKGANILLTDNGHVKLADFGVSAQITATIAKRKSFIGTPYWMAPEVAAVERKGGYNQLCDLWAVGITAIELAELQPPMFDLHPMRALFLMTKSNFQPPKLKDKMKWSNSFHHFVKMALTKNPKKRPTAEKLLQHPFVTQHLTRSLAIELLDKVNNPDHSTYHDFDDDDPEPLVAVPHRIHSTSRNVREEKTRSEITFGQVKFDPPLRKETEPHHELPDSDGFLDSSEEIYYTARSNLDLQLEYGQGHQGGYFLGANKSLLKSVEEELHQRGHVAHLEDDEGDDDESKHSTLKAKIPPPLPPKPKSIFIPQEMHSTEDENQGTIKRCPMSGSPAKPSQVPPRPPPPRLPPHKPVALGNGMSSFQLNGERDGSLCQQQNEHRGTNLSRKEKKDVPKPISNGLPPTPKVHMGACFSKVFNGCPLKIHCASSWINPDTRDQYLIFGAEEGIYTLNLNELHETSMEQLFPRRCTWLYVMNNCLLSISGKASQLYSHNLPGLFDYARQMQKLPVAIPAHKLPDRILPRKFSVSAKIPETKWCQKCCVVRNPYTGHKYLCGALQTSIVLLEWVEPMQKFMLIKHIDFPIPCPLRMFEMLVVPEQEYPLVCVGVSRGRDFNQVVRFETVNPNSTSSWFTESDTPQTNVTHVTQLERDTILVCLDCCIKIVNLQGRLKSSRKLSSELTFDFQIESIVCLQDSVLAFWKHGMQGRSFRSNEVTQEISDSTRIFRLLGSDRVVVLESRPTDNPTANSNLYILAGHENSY

[2] = system: Tyrosine-protein kinase ABL1 (Homo sapiens), P00519 [H396P]; assay: Selectivity interaction (Ambit KINOMEscan and KiNATiv profiling in Jurkat cells) EUB0000090b ABL1; format: cell-based; conditions: at 1 µM
[3] = molecular target: T2, Interleukin-1 receptor-associated kinase 4 (Homo sapiens) (UniProt Q9NWZ3); assay: Selectivity interaction (KinomeScan (DiscoverX)) EUB0000655a IRAK4; conditions: at 10 µM
T2 sequence (whole entry): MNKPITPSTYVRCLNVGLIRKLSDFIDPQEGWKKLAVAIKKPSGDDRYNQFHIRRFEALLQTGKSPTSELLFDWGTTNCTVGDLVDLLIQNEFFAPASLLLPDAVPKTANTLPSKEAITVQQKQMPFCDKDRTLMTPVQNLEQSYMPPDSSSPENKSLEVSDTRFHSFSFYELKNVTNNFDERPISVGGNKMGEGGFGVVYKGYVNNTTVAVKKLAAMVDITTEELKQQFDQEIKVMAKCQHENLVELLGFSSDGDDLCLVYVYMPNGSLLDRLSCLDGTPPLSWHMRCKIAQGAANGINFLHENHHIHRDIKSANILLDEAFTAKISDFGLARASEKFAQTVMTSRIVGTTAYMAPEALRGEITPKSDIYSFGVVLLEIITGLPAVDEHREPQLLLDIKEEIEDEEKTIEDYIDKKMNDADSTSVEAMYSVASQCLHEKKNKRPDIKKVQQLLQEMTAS

[4] = molecular target: Fibroblast growth factor receptor 2 (Homo sapiens) (UniProt P21802); assay: Selectivity interaction (KinomeScan (DiscoverX)) EUB0000655a FGFR2; conditions: at 10 µM
Chain of Fibroblast growth factor receptor 2 (Homo sapiens) (P21802 22-821 limits assumed): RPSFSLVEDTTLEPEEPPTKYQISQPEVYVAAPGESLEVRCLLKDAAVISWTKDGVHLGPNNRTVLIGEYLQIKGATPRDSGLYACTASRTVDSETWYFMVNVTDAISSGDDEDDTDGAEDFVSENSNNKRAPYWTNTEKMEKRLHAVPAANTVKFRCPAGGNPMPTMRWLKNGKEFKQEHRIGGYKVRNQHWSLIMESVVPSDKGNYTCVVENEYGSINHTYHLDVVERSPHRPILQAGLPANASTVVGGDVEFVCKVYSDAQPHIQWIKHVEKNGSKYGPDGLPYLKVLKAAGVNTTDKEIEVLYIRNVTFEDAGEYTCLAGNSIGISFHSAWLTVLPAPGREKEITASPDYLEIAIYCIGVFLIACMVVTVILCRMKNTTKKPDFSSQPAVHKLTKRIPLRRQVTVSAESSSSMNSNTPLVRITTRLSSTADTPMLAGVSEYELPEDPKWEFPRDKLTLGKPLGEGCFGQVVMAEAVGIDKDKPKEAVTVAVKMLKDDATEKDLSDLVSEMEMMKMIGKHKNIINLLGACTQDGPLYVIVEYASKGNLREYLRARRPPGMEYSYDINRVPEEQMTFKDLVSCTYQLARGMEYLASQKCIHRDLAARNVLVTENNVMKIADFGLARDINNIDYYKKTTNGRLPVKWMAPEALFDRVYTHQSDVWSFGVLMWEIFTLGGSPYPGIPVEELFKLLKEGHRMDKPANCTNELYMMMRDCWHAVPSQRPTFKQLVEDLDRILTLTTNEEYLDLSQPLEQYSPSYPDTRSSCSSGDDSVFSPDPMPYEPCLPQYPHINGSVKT

[5] = molecular target: Citron Rho-interacting kinase (Homo sapiens) (UniProt O14578); assay: Selectivity interaction (KinomeScan (DiscoverX)) EUB0001079a CIT; conditions: at 1 µM
Chain of Citron Rho-interacting kinase (Homo sapiens) (O14578 whole entry): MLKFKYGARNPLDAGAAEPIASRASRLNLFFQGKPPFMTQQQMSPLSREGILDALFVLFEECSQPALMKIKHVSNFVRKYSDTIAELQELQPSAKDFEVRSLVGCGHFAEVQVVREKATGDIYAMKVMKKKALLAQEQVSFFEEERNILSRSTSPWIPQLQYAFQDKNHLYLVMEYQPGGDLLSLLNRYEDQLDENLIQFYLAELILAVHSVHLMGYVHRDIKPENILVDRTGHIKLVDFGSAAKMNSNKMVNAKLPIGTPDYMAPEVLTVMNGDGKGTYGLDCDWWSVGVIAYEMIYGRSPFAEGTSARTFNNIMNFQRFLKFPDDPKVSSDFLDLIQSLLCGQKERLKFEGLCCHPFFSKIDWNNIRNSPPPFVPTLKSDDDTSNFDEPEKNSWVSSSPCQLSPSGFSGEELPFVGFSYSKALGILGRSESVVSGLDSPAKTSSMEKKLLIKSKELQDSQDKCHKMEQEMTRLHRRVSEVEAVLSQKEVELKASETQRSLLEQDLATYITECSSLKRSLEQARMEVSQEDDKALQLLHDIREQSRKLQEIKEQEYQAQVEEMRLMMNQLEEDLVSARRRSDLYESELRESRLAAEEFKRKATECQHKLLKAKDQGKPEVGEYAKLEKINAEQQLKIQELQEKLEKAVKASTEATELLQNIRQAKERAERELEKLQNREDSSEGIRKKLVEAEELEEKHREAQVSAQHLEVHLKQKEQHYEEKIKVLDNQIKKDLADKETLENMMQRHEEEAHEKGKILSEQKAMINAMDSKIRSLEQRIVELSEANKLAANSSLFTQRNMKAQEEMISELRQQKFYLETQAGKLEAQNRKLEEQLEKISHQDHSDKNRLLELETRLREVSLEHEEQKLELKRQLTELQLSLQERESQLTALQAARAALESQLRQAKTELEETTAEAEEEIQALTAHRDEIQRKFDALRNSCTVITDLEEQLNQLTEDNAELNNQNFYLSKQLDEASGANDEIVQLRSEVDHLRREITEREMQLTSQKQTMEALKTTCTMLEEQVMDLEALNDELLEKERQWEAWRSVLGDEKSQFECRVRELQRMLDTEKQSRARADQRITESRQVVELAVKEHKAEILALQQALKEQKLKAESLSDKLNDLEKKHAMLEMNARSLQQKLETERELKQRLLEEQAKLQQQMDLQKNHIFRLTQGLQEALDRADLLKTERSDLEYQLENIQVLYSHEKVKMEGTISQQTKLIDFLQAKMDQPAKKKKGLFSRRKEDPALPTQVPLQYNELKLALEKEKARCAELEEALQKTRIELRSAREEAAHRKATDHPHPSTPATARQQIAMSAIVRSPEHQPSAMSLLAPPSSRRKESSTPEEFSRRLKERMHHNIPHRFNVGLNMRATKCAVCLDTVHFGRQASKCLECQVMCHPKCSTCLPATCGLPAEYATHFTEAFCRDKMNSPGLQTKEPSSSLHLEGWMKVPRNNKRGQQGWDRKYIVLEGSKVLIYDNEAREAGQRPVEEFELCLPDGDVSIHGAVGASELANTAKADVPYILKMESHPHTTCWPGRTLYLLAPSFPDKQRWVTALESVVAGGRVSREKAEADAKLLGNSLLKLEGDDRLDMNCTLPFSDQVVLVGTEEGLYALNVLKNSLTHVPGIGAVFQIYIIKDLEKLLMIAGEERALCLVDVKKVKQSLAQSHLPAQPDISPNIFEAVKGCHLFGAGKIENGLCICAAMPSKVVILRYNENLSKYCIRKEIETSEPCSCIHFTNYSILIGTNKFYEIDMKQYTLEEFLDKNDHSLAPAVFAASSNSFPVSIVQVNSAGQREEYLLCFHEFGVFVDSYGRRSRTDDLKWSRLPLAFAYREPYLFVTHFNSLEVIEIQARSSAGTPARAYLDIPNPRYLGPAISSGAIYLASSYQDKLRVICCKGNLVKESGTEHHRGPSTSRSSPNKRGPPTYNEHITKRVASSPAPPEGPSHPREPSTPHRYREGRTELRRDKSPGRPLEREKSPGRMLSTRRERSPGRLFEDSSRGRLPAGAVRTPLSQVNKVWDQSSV

[6] = molecular target: T3, Serine/threonine-protein kinase Nek11 (Homo sapiens) (UniProt Q8NG66); assay: Selectivity interaction (Upstate Kinase Profiler service (Millipore)) EUB0000056c NEK11; conditions: at 1 µM
T3 sequence (whole entry): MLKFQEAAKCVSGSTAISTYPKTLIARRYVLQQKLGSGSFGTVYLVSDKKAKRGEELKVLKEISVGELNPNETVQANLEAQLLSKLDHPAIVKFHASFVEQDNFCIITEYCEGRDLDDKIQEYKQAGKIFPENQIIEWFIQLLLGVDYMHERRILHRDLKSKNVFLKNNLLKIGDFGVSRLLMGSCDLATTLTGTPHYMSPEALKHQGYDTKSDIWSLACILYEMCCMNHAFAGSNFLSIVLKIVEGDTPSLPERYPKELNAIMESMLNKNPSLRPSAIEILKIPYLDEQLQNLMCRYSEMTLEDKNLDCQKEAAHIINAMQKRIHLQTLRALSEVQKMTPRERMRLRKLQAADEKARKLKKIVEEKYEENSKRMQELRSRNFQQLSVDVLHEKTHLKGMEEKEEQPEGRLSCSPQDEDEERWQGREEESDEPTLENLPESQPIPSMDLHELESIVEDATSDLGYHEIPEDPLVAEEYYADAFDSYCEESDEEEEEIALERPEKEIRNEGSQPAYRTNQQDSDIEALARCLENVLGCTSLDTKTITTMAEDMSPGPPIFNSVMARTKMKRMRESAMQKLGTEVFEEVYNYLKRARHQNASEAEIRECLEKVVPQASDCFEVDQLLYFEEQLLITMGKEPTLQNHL

[7] = molecular target: T4, Mitogen-activated protein kinase 13 (Homo sapiens) (UniProt O15264); assay: Selectivity interaction (Upstate Kinase Profiler service (Millipore)) EUB0000056c MAPK13; conditions: at 1 µM
T4 sequence (whole entry): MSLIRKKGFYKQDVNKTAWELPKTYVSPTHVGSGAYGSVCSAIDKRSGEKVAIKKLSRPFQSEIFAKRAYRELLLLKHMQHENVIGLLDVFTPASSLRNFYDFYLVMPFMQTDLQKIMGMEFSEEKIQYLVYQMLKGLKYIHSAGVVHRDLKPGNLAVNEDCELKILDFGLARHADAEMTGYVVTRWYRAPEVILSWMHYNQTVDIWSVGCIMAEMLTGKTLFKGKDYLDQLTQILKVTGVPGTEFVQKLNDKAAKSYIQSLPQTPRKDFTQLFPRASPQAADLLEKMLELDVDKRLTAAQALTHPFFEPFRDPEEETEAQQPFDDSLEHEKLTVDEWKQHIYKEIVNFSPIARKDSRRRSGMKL

[8] = molecular target: Kappa-type opioid receptor (Homo sapiens, UniProt P41145); assay: Selectivity interaction (Panel of kinases, GPCRs, ion channels and transporters (enzymatic assay)) EUB0000223bCl OPRK1
Chain of Kappa-type opioid receptor (P41145 whole entry): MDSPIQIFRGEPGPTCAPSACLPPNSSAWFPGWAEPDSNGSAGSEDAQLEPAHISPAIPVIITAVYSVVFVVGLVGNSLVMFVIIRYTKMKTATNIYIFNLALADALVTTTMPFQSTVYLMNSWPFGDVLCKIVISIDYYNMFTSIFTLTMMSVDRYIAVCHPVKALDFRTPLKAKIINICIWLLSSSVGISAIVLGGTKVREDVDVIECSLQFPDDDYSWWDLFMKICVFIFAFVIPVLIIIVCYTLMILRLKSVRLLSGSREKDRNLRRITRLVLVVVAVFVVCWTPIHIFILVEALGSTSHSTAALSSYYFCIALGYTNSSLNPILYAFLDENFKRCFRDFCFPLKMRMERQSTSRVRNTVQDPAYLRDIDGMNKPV

[9] = molecular target: Receptor tyrosine-protein kinase erbB-3 (Homo sapiens) (UniProt P21860); assay: Selectivity interaction (KinomeScan (DiscoverX)) EUB0000666a ERBB3; conditions: at 10 µM
Chain of Receptor tyrosine-protein kinase erbB-3 (Homo sapiens) (P21860 whole entry): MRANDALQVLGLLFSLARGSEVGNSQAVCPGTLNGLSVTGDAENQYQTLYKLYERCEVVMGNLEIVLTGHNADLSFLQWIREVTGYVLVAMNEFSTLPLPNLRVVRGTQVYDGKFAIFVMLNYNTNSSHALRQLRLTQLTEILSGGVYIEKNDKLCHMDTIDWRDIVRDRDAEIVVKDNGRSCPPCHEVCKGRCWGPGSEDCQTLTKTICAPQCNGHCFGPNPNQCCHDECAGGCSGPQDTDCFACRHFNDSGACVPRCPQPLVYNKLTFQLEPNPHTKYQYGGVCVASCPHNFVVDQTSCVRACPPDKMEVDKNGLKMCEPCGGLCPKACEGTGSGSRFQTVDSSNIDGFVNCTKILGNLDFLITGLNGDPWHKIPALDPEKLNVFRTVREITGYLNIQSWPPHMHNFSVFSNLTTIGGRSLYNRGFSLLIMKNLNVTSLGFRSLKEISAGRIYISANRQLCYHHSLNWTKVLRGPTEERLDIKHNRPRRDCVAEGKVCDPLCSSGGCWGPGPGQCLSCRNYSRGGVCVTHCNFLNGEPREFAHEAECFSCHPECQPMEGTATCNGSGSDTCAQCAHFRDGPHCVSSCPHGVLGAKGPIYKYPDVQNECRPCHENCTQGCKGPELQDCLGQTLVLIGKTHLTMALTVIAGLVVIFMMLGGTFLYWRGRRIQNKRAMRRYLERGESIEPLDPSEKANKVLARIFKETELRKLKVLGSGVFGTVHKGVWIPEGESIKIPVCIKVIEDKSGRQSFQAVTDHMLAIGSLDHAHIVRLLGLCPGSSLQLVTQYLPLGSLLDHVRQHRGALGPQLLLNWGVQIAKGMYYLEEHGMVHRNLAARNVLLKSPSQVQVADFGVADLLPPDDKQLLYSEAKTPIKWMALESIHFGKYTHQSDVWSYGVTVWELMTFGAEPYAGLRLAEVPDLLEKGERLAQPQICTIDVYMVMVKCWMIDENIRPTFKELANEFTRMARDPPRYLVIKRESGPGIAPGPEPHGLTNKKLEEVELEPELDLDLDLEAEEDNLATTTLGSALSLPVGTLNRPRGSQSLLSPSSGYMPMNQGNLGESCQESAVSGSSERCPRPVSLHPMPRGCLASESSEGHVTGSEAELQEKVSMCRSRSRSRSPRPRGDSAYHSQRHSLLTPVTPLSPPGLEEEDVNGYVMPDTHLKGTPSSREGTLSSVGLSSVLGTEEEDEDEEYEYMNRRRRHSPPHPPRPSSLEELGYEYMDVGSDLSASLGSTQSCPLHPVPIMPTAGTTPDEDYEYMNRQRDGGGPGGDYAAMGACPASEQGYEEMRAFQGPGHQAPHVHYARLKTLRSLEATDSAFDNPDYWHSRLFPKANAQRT

SMILES: CN(C)C/C=C/C(=O)Nc1ccc(C(=O)N2CCCC(Nc3ncc(Cl)c(-c4c[nH]c5ccccc45)n3)C2)cc1 (centres undefined)
% of control [1]: 95% | % of control [2]: 100%

SMILES: CN(C)CCOc1ccc(-c2nc(-c3ccncc3)c(-c3ccc4c(c3)CC/C4=N\O)[nH]2)cc1
% of control [3]: 91% | % of control [4]: 100%

SMILES: Nc1cnc(N2CCc3cc(S(=O)(=O)Nc4c(F)cc(Cl)cc4F)cc(N4CCCC4=O)c32)nc1 [TP-020n]
% of control [5]: 91%

% of inhibition [6]: -11% | % of inhibition [7]: 6%
SMILES: Cc1ccc(-c2ccc3c(ccc4sc5c(c43)NC[C@@H](C)NC5=O)n2)cn1

SMILES: COc1cc(C(=O)N2CC[C@@H](O)[C@@H](N)C2)cc2nc(-c3cc4ccccc4n3CC3CC3)n(C)c12
pXC50 [8]: < 4 M

SMILES: O=C(NOC[C@H](O)CO)c1ccc(F)c(F)c1Nc1ccc(I)cc1F
% of control [9]: 100%
